From patent publication US11642333B2, “Inhalable formulation of a solution containing vilanterol trifenatate and umeclidinium bromide” (ANOVENT PHARMACEUTICAL (U.S.), LLC, priority 2019, dated 2023)

Experiments:
[1] = Content of umeclidinium bromide and vilanterol trifenatate in the inhalation solutions (tested results); type: physicochemical
Protocol: 50% benzalkonium chloride and tween-80 according to table 1, were dissolved in 16 g of 95% ethanol for three times, and then transferred into 100 ml volumetric flask. […] Finally, the flask was made to volume with purified water.
50% benzalkonium chloride and tween-80 according to table 3, were dissolved in 95% ethanol according to table 3 for three times, and then transferred into 100 ml volumetric flask. […] Finally, the flask was made to volume with purified water.
50% benzalkonium chloride and tween-80 according to table 5, were dissolved in 95% ethanol according to table 5 for three times, and then transferred into 100 ml volumetric flask. […] Finally, the flask was made to volume with purified water.

[2] = in vivo; cited from earlier work

## OC(c1ccccc1)(c1ccccc1)C12CC[N+](CCOCc3ccccc3)(CC1)CC2.[Br-] [Umeclidinium bromide, 1-[2-(Benzyloxy)ethyl]-4-(hydroxydiphenylmethyl)-1-azoniabicyclo [2.2.2] octane bromide]
[1]; sample I and sample II (table 2)
  Dissolution in the solution containing ethanol and tween-80: completely dissolved
[1]; sample III, sample IV and sample V (table 4)
  Dissolution in the solution containing ethanol and tween-80: completely dissolved
[1]; sample VI, sample VII and sample VIII (table 6)
  Dissolution in the solution containing ethanol and tween-80: completely dissolved
[2]
  oral bioavailability: poor
